Laboratory results taken from patent US10159249B2 (BAYER CROPSCIENCE AKTIENGESELLSCHAFT, priority 2013, dated 2018).

What was measured:
Type in all cases: in vivo
[1] = tested on: maize transgenic T0 events expressing Axmi428H-Evo41; assay: Greenhouse trial, maize T0 plants, leaf area damage; conditions: for number of events, herbicide tolerance class 0 (41%-100% damaged leaf area) / number of events, herbicide tolerance class 1 (16%-40% damaged leaf area) / number of events, herbicide tolerance class 2 (6%-15% damaged leaf area) / number of events, herbicide tolerance class 3 (0%-5% damaged leaf area): maize Axmi428H-Evo41, six days after application
Protocol: (§1) Regenerated T0 events from tissue culture were transplanted into two inch square pots with synthetic soil (Fafard® Mix) and controlled-released fertilizer (Haifa Multicote™; polymer-coated controlled-release fertilizer, NPK Pro 18-6-12+Micronutrients) and cultivated in the greenhouse (GH) under supplementary high pressure sodium light for 12 days at a maximum of 30° C. during the day and a minimum of 22° C. at night. Fully recovered plants were transferred into five inch square pots filled with synthetic soil and control released fertilizer under the same environmental conditions. […] All herbicide treatments were conducted in a DeVries Tracker Sprayer system with standard application protocols, which are well known in the art. As a spray control T0 events have been sprayed with the adjunvant mixture lacking the herbicide.
(§2) Table 2 summarizes results of transgenic maize plants expressing mutants of the Pseudomonas fluorescens HPPD protein comprising an E (Glu)->P (Pro) replacement at position 335, a G (Gly)->W (Trp) replacement at position 336, a K (Lys)->A (Ala) replacement at position 339 and an A (Ala)->Q (Gln) replacement at position 340 (named PfHPPDEvo41 and being disclosed under SEQ ID No:16 in PCT/US2013/59598 (WO2014/043435) and being disclosed in present application under SEQ ID No. 29), or a mutated sequence of the Pseudomonas (=Comamonas) testosteroni HPPD protein comprising a E (Glu)->P (Pro) replacement at position 351, a G (Gly)->W (Trp) replacement at position 352, a K (Lys)->A (Ala) replacement at position 355 and an A (Ala)->Q (Gln) replacement at position 356 (named Axmi428H-Evo41 and being disclosed under SEQ ID No 56 in PCT/US2013/59598 (WO2014/043435) and being disclosed in present application as the HPPD protein sequence under SEQ ID No 33) or a mutated sequence of the Pseudomonas agarici HPPD protein comprising a E (Glu)->P (Pro) replacement at position 335, a G (Gly)->W (Trp) replacement at position 336, a K (Lys)->A (Ala) replacement at position 339 and an A (Ala)->Q (Gln) replacement at position 340 (named Axmi309H-EVO41 and being disclosed under SEQ ID No 54 in PCT/US2013/59598 (WO2014/043435) and being disclosed in present application as the HPPD protein sequence under SEQ ID No 37).
(§3) A rating of “1” was assigned to plants having a moderate tolerance with 16% to 40% damage of total leaf area. A rating of “2” was assigned to plants with good tolerance within the range of 6% to 15% damage of total leaf area.

[2] = tested on: maize transgenic T0 events expressing PfHPPDEvo41; assay: as above; conditions: for number of events, herbicide tolerance class 0 (41%-100% damaged leaf area) / number of events, herbicide tolerance class 1 (16%-40% damaged leaf area) / number of events, herbicide tolerance class 2 (6%-15% damaged leaf area) / number of events, herbicide tolerance class 3 (0%-5% damaged leaf area): maize PfHPPDEvo41, six days after application
Protocol: as §1, §2, §3

[3] = tested on: maize transgenic T0 events expressing Axmi309H-Evo41; conditions: 100 g AI/ha, six days after application
Protocol: as §1, with “art.” for “art. As a spray control T0 events have been sprayed with the adjunvant mixture lacking the herbicide.”
as §3

## CSc1c(C(F)(F)F)ccc(C(=O)Nc2nnnn2C)c1Cl
[1]; maize Axmi428H-Evo41 (n=29), 100 g AI/ha
  share of tested events with high tolerance (5% or less bleached leaf area): ~70%
[1]; 50 g AI/ha
  number of events, herbicide tolerance class 0 (41%-100% damaged leaf area): 0
  number of events, herbicide tolerance class 1 (16%-40% damaged leaf area): 0
  number of events, herbicide tolerance class 2 (6%-15% damaged leaf area): 0
  number of events, herbicide tolerance class 3 (0%-5% damaged leaf area): 7
[1]; 100 g AI/ha
  number of events, herbicide tolerance class 0 (41%-100% damaged leaf area): 3
  number of events, herbicide tolerance class 1 (16%-40% damaged leaf area): 4
  number of events, herbicide tolerance class 2 (6%-15% damaged leaf area): 1
  number of events, herbicide tolerance class 3 (0%-5% damaged leaf area): 21
[2]; maize PfHPPDEvo41 (n=21), 100 g AI/ha
  share of tested events with high tolerance (5% or less bleached leaf area): ~70%
[2]; 25 g AI/ha
  number of events, herbicide tolerance class 0 (41%-100% damaged leaf area): 6
  number of events, herbicide tolerance class 1 (16%-40% damaged leaf area): 0
  number of events, herbicide tolerance class 2 (6%-15% damaged leaf area): 1
  number of events, herbicide tolerance class 3 (0%-5% damaged leaf area): 28
[2]; 50 g AI/ha
  number of events, herbicide tolerance class 0 (41%-100% damaged leaf area): 1
  number of events, herbicide tolerance class 1 (16%-40% damaged leaf area): 0
  number of events, herbicide tolerance class 2 (6%-15% damaged leaf area): 2
  number of events, herbicide tolerance class 3 (0%-5% damaged leaf area): 28
[2]; 100 g AI/ha
  number of events, herbicide tolerance class 0 (41%-100% damaged leaf area): 4
  number of events, herbicide tolerance class 1 (16%-40% damaged leaf area): 0
  number of events, herbicide tolerance class 2 (6%-15% damaged leaf area): 2
  number of events, herbicide tolerance class 3 (0%-5% damaged leaf area): 15
[3]
  number of events, herbicide tolerance class 0 (41%-100% damaged leaf area): 5
  number of events, herbicide tolerance class 1 (16%-40% damaged leaf area): 9
  number of events, herbicide tolerance class 2 (6%-15% damaged leaf area): 16
  number of events, herbicide tolerance class 3 (0%-5% damaged leaf area): 6
